Results taken from ChEMBL document CHEMBL5532639, “Heterocyclic pyrimidine derivatives as promising antibacterial agents” (Eur J Med Chem, 2023).
Values after ≈ are worked out from the molar mass of the structure shown. Each block holds one compound with its values, some of them ahead of it.

Key:
Staphylococcus aureus [1] = assay: Antibacterial activity against Staphylococcus aureus assessed as bacterial growth inhibition by measuring zone of inhibition at 50 ug/ml by agar cup diffusion assay; format: functional; conditions: read-out: IZ
Escherichia coli [2] = assay: Antibacterial activity against Escherichia coli assessed as bacterial growth inhibition by measuring zone of inhibition at 50 ug/ml by agar cup diffusion assay; format: functional; conditions: read-out: IZ
Bacillus subtilis [3] = assay: Antibacterial activity against Bacillus subtilis ATCC 465 assessed as reduction in bacterial growth measured after 24 hrs by Mueller-Hinton broth assay; format: functional
Staphylococcus aureus [4] = assay: microbe, parasite or virus in culture; conditions: ATCC 25923, 24 h
Description: Antibacterial activity against Staphylococcus aureus ATCC 25923 assessed as reduction in bacterial growth measured after 24 hrs by Mueller-Hinton broth assay

Pseudomonas aeruginosa [5] = assay: Antibacterial activity against Pseudomonas aeruginosa assessed as reduction in microbial growth by measuring zone of inhibition; format: functional
Escherichia coli [6] = assay: Antibacterial activity against Escherichia coli assessed as reduction in microbial growth by measuring zone of inhibition; format: functional
Staphylococcus aureus [7] = assay: Antibacterial activity against Staphylococcus aureus assessed as reduction in microbial growth by measuring zone of inhibition; format: functional
Bacillus subtilis [8] = assay: Antibacterial activity against Bacillus subtilis assessed as reduction in microbial growth by measuring zone of inhibition; format: functional
Salmonella typhimurium [9] = assay: Antibacterial activity against Salmonella typhimurium DT104 assessed as reduction in bacterial growth; format: functional, Salmonella enterica subsp. enterica serovar Typhimurium; conditions: Salmonella enterica
Escherichia coli [10] = assay: Antibacterial activity against Escherichia coli ATCC 25922 assessed as bacterial growth inhibition; format: functional
Bacillus subtilis [11] = assay: Antibacterial activity against Bacillus subtilis 6633 assessed as reduction in bacterial growth; format: functional
Staphylococcus aureus [12] = assay: Antibacterial activity against Staphylococcus aureus ATCC 3750 assessed as reduction in bacterial growth; format: functional
Bacillus subtilis [13] = assay: Antibacterial activity against Bacillus subtilis assessed as bacterial growth inhibition by measuring zone of inhibition at 50 ug/ml by agar cup diffusion assay; format: functional; conditions: read-out: IZ
Salmonella typhimurium [14] = assay: Antibacterial activity against Salmonella typhimurium DT104 assessed as bacterial growth inhibition by measuring zone of inhibition at 50 ug/ml by agar cup diffusion assay; format: functional, Salmonella enterica subsp. enterica serovar Typhimurium; conditions: Salmonella enterica, read-out: IZ
Streptococcus pyogenes [15] = assay: Antibacterial activity against Streptococcus pyogenes assessed as inhibition of microbial growth by broth micro-dilution method; format: functional
Staphylococcus aureus [16] = assay: Antibacterial activity against Staphylococcus aureus assessed as inhibition of microbial growth by broth micro-dilution method; format: functional
Escherichia coli [17] = assay: Antibacterial activity against Escherichia coli assessed as inhibition of microbial growth by broth micro-dilution method; format: functional
Pseudomonas aeruginosa [18] = assay: Antibacterial activity against Pseudomonas aeruginosa assessed as inhibition of microbial growth by broth micro-dilution method; format: functional
Escherichia coli [19] = assay: Antibacterial activity against Escherichia coli assessed as bacterial growth inhibition incubated for 18 hrs by CLSI protocol based Mueller-Hinton broth assay; format: functional
Pseudomonas aeruginosa [20] = assay: Antibacterial activity against Pseudomonas aeruginosa assessed as reduction in bacterial growth by broth microdilution method; format: functional
Staphylococcus aureus [21] = assay: Antibacterial activity against Staphylococcus aureus assessed as reduction in microbial growth by CLSI based broth microdilution method; format: functional
Streptococcus pyogenes [22] = assay: Antibacterial activity against Streptococcus pyogenes assessed as reduction in microbial growth by CLSI based broth microdilution method; format: functional
Bacillus subtilis [23] = assay: Antimicrobial activity against Bacillus subtilis RCMB 010069 assessed as bacterial growth inhibition by measuring zone of inhibition at 50 ug/ml by agar cup diffusion assay; format: functional; conditions: read-out: IZ
Escherichia coli [24] = assay: Antimicrobial activity against Escherichia coli RCMB 010052 assessed as bacterial growth inhibition by measuring zone of inhibition at 50 ug/ml by agar cup diffusion assay; format: functional; conditions: read-out: IZ
Streptococcus pneumoniae = assay: Antimicrobial activity against Streptococcus […] assessed as bacterial growth inhibition by measuring zone of inhibition at 50 ug/ml by agar cup diffusion assay; format: functional; conditions: read-out: IZ
Staphylococcus aureus [25] = assay: Antibacterial activity against Staphylococcus aureus assessed as zone of inhibition at 20 mg/ml; format: functional; conditions: read-out: IZ
Bacillus subtilis [26] = assay: Antibacterial activity against Bacillus subtilis assessed as zone of inhibition at 20 mg/ml; format: functional; conditions: read-out: IZ
Serratia marcescens = assay: Antibacterial activity against Serratia marcescens assessed as zone of inhibition at 20 microg/ml; format: functional; conditions: read-out: IZ
Sarcina = assay: Antibacterial activity against Sarcina assessed as zone of inhibition at 20 mg/ml; format: functional; conditions: read-out: IZ
Escherichia coli [27] = assay: Antibacterial activity against Escherichia coli assessed as zone of inhibition at 20 mg/ml; format: functional; conditions: read-out: IZ

Structure (SMILES): O=C(CSc1nnc(-c2cccnc2N2CCOCC2)o1)Nc1nc(-c2ccc(F)cc2)cc(-c2cc(F)c(Cl)cc2Cl)n1
zone of inhibition at 50 µg/mL (Staphylococcus aureus [1]): 11 mm | zone of inhibition at 50 µg/mL (Escherichia coli [2]): 11 mm

MIC (Bacillus subtilis [3]): 4 µg/mL (≈ 11.5 µM) | MIC (Staphylococcus aureus [4]): 64 µg/mL (≈ 184 µM)
Structure (SMILES): N#Cc1nc2[nH]c(=O)[nH]c(=O)c2c(-c2c(Cl)cccc2Cl)c1N

Structure (SMILES): Clc1ccc(/C=N/Nc2nc(SCc3ccccc3)ncc2I)cc1
inhibition zone (IZ) (Pseudomonas aeruginosa [5]): 18 mm | inhibition zone (IZ) (Escherichia coli [6]): 8 mm | inhibition zone (IZ) (Staphylococcus aureus [7]): 10 mm | inhibition zone (IZ) (Bacillus subtilis [8]): 10 mm

MIC (Salmonella typhimurium [9]): 12 µg/mL (≈ 31.5 µM) | MIC (Escherichia coli [10]): 12 µg/mL (≈ 31.5 µM) | MIC (Bacillus subtilis [11]): 11 µg/mL (≈ 28.9 µM) | MIC (Staphylococcus aureus [12]): 11 µg/mL (≈ 28.9 µM)
Structure (SMILES): Cc1nc2scc(-c3ccco3)c2c(=O)n1/N=C/c1ccc([N+](=O)[O-])cc1

Structure (SMILES): O=C(CSc1nnc(-c2cccnc2N2CCOCC2)o1)Nc1nc(-c2ccc(Cl)cc2)cc(-c2cc(F)c(Cl)cc2Cl)n1
zone of inhibition at 50 µg/mL (Bacillus subtilis [13]): 10 mm | zone of inhibition at 50 µg/mL (Staphylococcus aureus [1]): 13 mm | zone of inhibition at 50 µg/mL (Escherichia coli [2]): 10 mm | zone of inhibition at 50 µg/mL (Salmonella typhimurium [14]): 9 mm

MIC (Streptococcus pyogenes [15]): 50 µg/mL | MIC (Staphylococcus aureus [16]): 50 µg/mL | MIC (Escherichia coli [17]): 25 µg/mL | MIC (Pseudomonas aeruginosa [18]): 25 µg/mL
Structure (SMILES): COc1ccc(-c2cc(-c3ccc(Oc4ccccc4)cc3)nc(SCC(=O)Nc3nc4ccc(OC)cc4s3)n2)cc1

MIC (Escherichia coli [19]): 25 µg/mL (≈ 43.4 µM) | MIC (Pseudomonas aeruginosa [20]): 25 µg/mL (≈ 43.4 µM) | MIC (Staphylococcus aureus [21]): 100 µg/mL | MIC (Streptococcus pyogenes [22]): 100 µg/mL
Structure (SMILES): CCOC(=O)c1ccc(Nc2nc(Nc3ccc(S(=O)(=O)Nc4ncccn4)cc3)nc(N3CCCCC3)n2)cc1

Structure (SMILES): COc1cc(-c2cc(-c3cc(F)c(Cl)cc3Cl)nc(NC(=O)CSc3nnc(-c4cccnc4N4CCOCC4)o3)n2)cc(OC)c1OC
zone of inhibition at 50 µg/mL (Staphylococcus aureus [1]): 9 mm | zone of inhibition at 50 µg/mL (Escherichia coli [2]): 14 mm

Structure (SMILES): Cc1ccc(-c2c(C(=O)c3ccc(C(=O)O)cc3)c(N)nc3ncnn23)cc1
zone of inhibition at 50 µg/mL (Bacillus subtilis [23]): 26.8 mm | zone of inhibition at 50 µg/mL (Escherichia coli [24]): 16.6 mm | zone of inhibition at 50 µg/mL (Streptococcus pneumoniae): 20.7 mm

Structure (SMILES): COc1ccc(/C=N/Nc2nc(SCc3ccccc3)ncc2I)cc1O
inhibition zone (IZ) (Pseudomonas aeruginosa [5]): 19 mm | inhibition zone (IZ) (Escherichia coli [6]): 4 mm | inhibition zone (IZ) (Staphylococcus aureus [7]): 12 mm | inhibition zone (IZ) (Bacillus subtilis [8]): 13 mm

Structure (SMILES): COc1ccc(Nc2c(C#N)c(N)nc3c(/N=N/c4ccc(S(=O)(=O)Nc5ncccn5)cc4)c(=O)[nH]n23)cc1
zone of inhibition at 20000 µg/mL (Staphylococcus aureus [25]): 12 mm | zone of inhibition at 20000 µg/mL (Bacillus subtilis [26]): 9 mm | zone of inhibition at 20 µg/mL (Serratia marcescens): 15 mm | zone of inhibition at 20000 µg/mL (Sarcina): 15 mm | zone of inhibition at 20000 µg/mL (Escherichia coli [27]): 15 mm

Structure (SMILES): Ic1cnc(SCc2ccccc2)nc1N/N=C/c1c(-c2ccccc2)c(-c2ccccc2)nn1-c1ccccc1
inhibition zone (IZ) (Pseudomonas aeruginosa [5]): 16 mm | inhibition zone (IZ) (Escherichia coli [6]): 10 mm | inhibition zone (IZ) (Staphylococcus aureus [7]): 18 mm | inhibition zone (IZ) (Bacillus subtilis [8]): 20 mm

Structure (SMILES): O=C1OC(c2ccc(C(=O)O)cc2)N=C1/C=C/c1ccc(C(=O)c2cccs2)cc1 (configuration not stated)
zone of inhibition at 50 µg/mL (Bacillus subtilis [23]): 22.3 mm | zone of inhibition at 50 µg/mL (Escherichia coli [24]): 17.9 mm | zone of inhibition at 50 µg/mL (Streptococcus pneumoniae): 18.6 mm

Structure (SMILES): Cc1ccc(Nc2c(C#N)c(N)nc3c(/N=N/c4ccc(S(=O)(=O)Nc5ncc(C)cn5)cc4)c(=O)[nH]n23)cc1
zone of inhibition at 20000 µg/mL (Staphylococcus aureus [25]): 12 mm | zone of inhibition at 20000 µg/mL (Bacillus subtilis [26]): 9 mm | zone of inhibition at 20 µg/mL (Serratia marcescens): 15 mm | zone of inhibition at 20000 µg/mL (Sarcina): 15 mm | zone of inhibition at 20000 µg/mL (Escherichia coli [27]): 12 mm

Structure (SMILES): O=[N+]([O-])c1ccc(Nc2nc(SCc3ccccc3)ncc2I)cc1
inhibition zone (IZ) (Pseudomonas aeruginosa [5]): 10 mm | inhibition zone (IZ) (Escherichia coli [6]): 5 mm | inhibition zone (IZ) (Staphylococcus aureus [7]): 16 mm | inhibition zone (IZ) (Bacillus subtilis [8]): 14 mm

Structure (SMILES): O=C(CSc1nnc(-c2cccnc2N2CCOCC2)o1)Nc1nc(-c2ccc(Cl)cc2Cl)cc(-c2cc(F)c(Cl)cc2Cl)n1
zone of inhibition at 50 µg/mL (Bacillus subtilis [13]): 9 mm | zone of inhibition at 50 µg/mL (Staphylococcus aureus [1]): 13 mm | zone of inhibition at 50 µg/mL (Escherichia coli [2]): 12 mm | zone of inhibition at 50 µg/mL (Salmonella typhimurium [14]): 12 mm

Structure (SMILES): Cc1ccc(-c2cc(-c3cc(F)c(Cl)cc3Cl)nc(NC(=O)CSc3nnc(-c4cccnc4N4CCOCC4)o3)n2)cc1
zone of inhibition at 50 µg/mL (Bacillus subtilis [13]): 8 mm | zone of inhibition at 50 µg/mL (Staphylococcus aureus [1]): 11 mm | zone of inhibition at 50 µg/mL (Escherichia coli [2]): 12 mm | zone of inhibition at 50 µg/mL (Salmonella typhimurium [14]): 10 mm

Structure (SMILES): O=C1OC(c2ccc(C(=O)O)cc2)N=C1/C=C/c1ccc(C(=O)c2ccccc2)cc1 (configuration not stated)
zone of inhibition at 50 µg/mL (Bacillus subtilis [23]): 23.7 mm | zone of inhibition at 50 µg/mL (Escherichia coli [24]): 17 mm | zone of inhibition at 50 µg/mL (Streptococcus pneumoniae): 19.3 mm

MIC (Bacillus subtilis [3]): 2 µg/mL (≈ 7.16 µM) | MIC (Staphylococcus aureus [4]): 8 µg/mL (≈ 28.6 µM)
Structure (SMILES): N#Cc1nc2[nH]c(=O)[nH]c(=O)c2c(-c2ccccc2)c1N
